Data taken from US20250325684A1, “POTENT ANTI-CANCER CYCLOTIDES” (University of Southern California, priority 2022, published 2025).

Columns and labels:
SW480 = assay: MTT cell viability, SW480 cells; assay type: cell-based, human; conditions: Homo sapiens, SW480 colon adenocarcinoma, p53 Mutant
Experimental: (§1) Cell viability assay in several human cancer cell lines (See Tables 1 to 10). Cell lines were cultured in RPMI 1640 (or recommended medium when indicated) medium supplemented with 10% fetal calf serum, penicillin (50 IU/mL) and streptomycin ([…]) at 37° C. in 5% CO2. Cell viability studies was carried using the MTT (3-(4,5-dimethylthiazol-2-yl)-2,5-diphenyltetrazolium bromide) assay as previously described (31). Briefly, ≈2×10^3 CRC cells were be seeded in 96-well microtiter plates in 100 μL RPMI 1640 in the presence of 10% calf serum. […] After 1 h, 210 μL/well of full complemented media was added, the cells were grown for 48 h and then treated with 20 μL of a solution of MTT (5 mg/mL) for 2 h. The medium was discarded and DMSO ([…]) was added to each well and incubated with gentle shaking for 20 min at room temperature. The absorbance at 595 nm of the solution is analyzed using a Tecan Genios Multifunctional Microplate Reader (Tecan System Inc) and the background at 670 nm subtracted. RNA-Seq analysis was performed using state-of-the-art bioinformatics tools. Briefly, raw RNA-Seq reads were mapped to human genome (hg38) using STAR aligner (v2.7.3a). Gencode Release 36 reference was used for annotation. Transcript and gene expression levels were quantified using the IsoEM (37) with default parameters. Counts per million (CPM) method is used for normalization. Differential expression was done using DESeq2 with default parameters. Genes involved in different biological pathways (human) were searched from Geneontology (http://geneontology.org/). Bioinformatics results can be validated by using Partek Flow (v10.0.21.0912), a bioinformatics pipeline developed by Zymo Research (https://www.zymoresearch.com/).
(§2) Cell viability was evaluated using the MTT assay as described above.

Jurkat = assay: MTT cell viability, Jurkat cells; assay type: cell-based, human; conditions: Homo sapiens, Jurkat childhood T acute lymphoblastic leukemia, p53 Mutant
Experimental: as §1, §2

MIA PaCa-2 = assay: MTT cell viability, MIA PaCa-2 cells; assay type: cell-based, human; conditions: Homo sapiens, MIA PaCa-2 pancreatic ductal adenocarcinoma, p53 Mutant
Experimental: as §1, §2

MV4-11 = assay: MTT cell viability, MV4-11 cells; assay type: cell-based, human; conditions: Homo sapiens, MV4-11 childhood acute monocytic leukemia, p53 WT
Experimental: as §1, §2

HCT116^+/+ = assay: MTT cell viability, HCT116 p53 wild-type cells; assay type: cell-based, human; conditions: Homo sapiens, HCT-116
Experimental: as §1, §2

HPAF-II = assay: MTT cell viability, HPAF-II cells; assay type: cell-based, human; conditions: Homo sapiens, HPAF-II pancreatic ductal adenocarcinoma, p53 Mutant
Experimental: as §1, §2

MOLM-13 = assay: MTT cell viability, MOLM-13 cells; assay type: cell-based, human; conditions: Homo sapiens, MOLM-13 adult acute myeloid leukemia, p53 WT
Experimental: as §1, §2

NCl-H522 = assay: MTT cell viability, NCl-H522 cells; assay type: cell-based, human; conditions: Homo sapiens, NCl-H522 lung adenocarcinoma, p53 Mutant (Deletion)
Experimental: as §1, §2

NCl-A549 = assay: MTT cell viability, NCl-A549 cells; assay type: cell-based, human; conditions: Homo sapiens, NCl-A549 lung adenocarcinoma, p53 WT
Experimental: as §1, §2

PANC-1 = assay: MTT cell viability, PANC-1 cells; assay type: cell-based, human; conditions: Homo sapiens, PANC-1 pancreatic ductal adenocarcinoma, p53 Mutant
Experimental: as §1, §2

NCl-H1299 = assay: MTT cell viability, NCl-H1299 cells; assay type: cell-based, human; conditions: Homo sapiens, NCl-H1299 lung large cell carcinoma, p53 Null
Experimental: as §1, §2

NCl-H526 = assay: MTT cell viability, NCl-H526 cells; assay type: cell-based, human; conditions: Homo sapiens, NCl-H526 lung small cell carcinoma, p53 Null
Experimental: as §1, §2

Caco-2 = assay: MTT cell viability, Caco-2 cells; assay type: cell-based, human; conditions: Homo sapiens, Caco-2 colon adenocarcinoma, p53 Mutant
Experimental: as §1, §2

BxPC-3 = assay: MTT cell viability, BxPC-3 cells; assay type: cell-based, human; conditions: Homo sapiens, BxPC-3 pancreatic ductal adenocarcinoma, p53 Mutant
Experimental: as §1, §2

HCT116^−/− = assay: MTT cell viability, HCT116 p53-null cells; assay type: cell-based, human; conditions: Homo sapiens, HCT-116
Experimental: as §1, with “Counts per million (CPM) method is used for normalization. Differential expression was done using DESeq2 with default parameters. Genes involved in different biological pathways (human) were searched from Geneontology (http://geneontology.org/). Bioinformatics results can be validated by using Partek Flow (v10.0.21.0912), a bioinformatics pipeline developed by Zymo Research (https://www.zymoresearch.com/).” left out
as §2

MSCLC 494 = assay: MTT cell viability, MSCLC 494 cells; assay type: cell-based; conditions: Mus musculus, MSCLC 494 murine small cell lung cancer
Experimental: as §1, §2

U937 = assay: MTT cell viability, U937 cells; assay type: cell-based, human; conditions: Homo sapiens, U-937, U937 adult acute monocytic leukemia, p53 Mutant
Experimental: as §1, §2

NCl-H69 = assay: MTT cell viability, NCl-H69 cells; assay type: cell-based, human; conditions: Homo sapiens, NCl-H69 lung small cell carcinoma, p53 Mutant
Experimental: as §1, §2

NCl-H23 = assay: MTT cell viability, NCl-H23 cells; assay type: cell-based, human; conditions: Homo sapiens, NCl-H23 lung adenocarcinoma, p53 Mutant
Experimental: as §1, §2

CFPAC-1 = assay: MTT cell viability, CFPAC-1 cells; assay type: cell-based, human; conditions: Homo sapiens, CFPAC-1 pancreatic ductal adenocarcinoma, p53 Mutant
Experimental: as §1, §2

EC50 (SW480): 26.1 ± 3.3 µM
EC50 (Jurkat): 12.1 ± 1.6 µM
EC50 (MIA PaCa-2): 10.5 ± 1.6 µM
EC50 (MV4-11): 0.3 ± 0.03 µM
EC50 (HCT116^+/+): 2.7 ± 0.2 µM
EC50 (MOLM-13): 0.7 ± 0.1 µM
EC50 (NCl-H522): 22.7 ± 2.8 µM
EC50 (NCl-A549): 15.8 ± 2.2 µM
EC50 (PANC-1): 12.7 ± 1.6 µM
EC50 (NCl-H1299): 21.5 ± 2.5 µM
EC50 (NCl-H526): 9.7 ± 1.8 µM
EC50 (Caco-2): > 50 µM
EC50 (BxPC-3): 17.3 ± 2.3 µM
EC50 (HCT116^−/−): 23.7 ± 1.9 µM
EC50 (U937): 9.6 ± 2.2 µM
SMILES: CC(C)(C)C[C@@H]1N[C@@H](C(=O)N[C@H]2CC[C@H](O)CC2)[C@H](c2cccc(Cl)c2F)[C@]12C(=O)Nc1cc(Cl)ccc12 [MI-77301]
EC50 (HPAF-II): 6.7 ± 1 µM
EC50 (MSCLC 494): 15.8 ± 2.2 µM
EC50 (NCl-H69): 31.7 ± 5.2 µM
EC50 (NCl-H23): 10.7 ± 1.9 µM
EC50 (CFPAC-1): 22.1 ± 1.6 µM
